Measurements published in patent US10597366B2, “Aryl ethers and uses thereof” (Peloton Therapeutics, Inc., priority 2013, dated 2020).
Like-named read-outs stand apart in the source and are kept apart here.

Tested on: 786-O-Hif-Luc cells (luciferase gene driven by multiple HIF responsive elements)
Test: Luciferase Assay
Type: cell-based
Conditions: 24 h, read-out: Mean Luciferease EC50
Description: A pool of infected cells were then selected against 2 μg/mL of puromycin (P8833, Sigma) for 10 days followed by limited dilution to select single clones.
Each concentration was tested in triplicate. After about 24 hours, luciferase activity was determined using ONE-Glo Luciferase Assay Reagent (E6110, Promega) following the manufacturer's recommended procedure. EC50 were calculated by using Dotmatics software.

[1] = 786-O-Hif-Luc cells, about 24 hours

SMILES: O=[N+]([O-])c1ccc(Oc2cc(F)cc(Cl)c2)c2c1C(O)CC2 (stereo not shown) [Compound 255, 4-(3-Chloro-5-fluorophenoxy)-7-nitro-2,3-dihydro-1H-inden-1-ol]
- EC50 [1]: 1390 nM

SMILES: COC(=O)/C=C/c1c(S(=O)(=O)C(F)(F)F)ccc(Oc2cc(F)cc(C#N)c2)c1C [Compound 147, Methyl (E)-3-[3-(3-cyano-5-fluoro-phenoxy)-2-methyl-6-(trifluoromethylsulfonyl)phenyl]prop-2-enoate]
- EC50 [1]: 7600 nM

SMILES: O=S(=O)(c1ccc(Oc2cncc(F)c2)c2c1[C@H](O)CC2)C(F)F [Compound 5, (R)-7-((difluoromethyl)sulfonyl)-4-((5-fluoropyridin-3-yl)oxy)-2,3-dihydro-1H-inden-1-ol]
- EC50 [1]: 420 nM

SMILES: [2H][C@]1(O)c2c(S(C)(=O)=O)ccc(Oc3cc(F)cc(C#N)c3)c2CC1(F)F [Compound 247, (S)-3-((2,2-Difluoro-1-hydroxy-7-(methylsulfonyl)-2,3-dihydro-1H-inden-4-yl-1-d)oxy)-5-fluorobenzonitrile]
- EC50: 24 nM

SMILES: CCS(=O)(=O)c1ccc(Oc2cc(F)cc(Cl)c2)c2c1C(O)CC2 (stereo not shown) [Compound 91, 4-(3-Chloro-5-fluorophenoxy)-7-(ethylsulfonyl)-2,3-dihydro-1H-inden-1-ol]
- EC50 [1]: 2300 nM

SMILES: CS(=O)(=O)c1ccc(Oc2cc(F)cc(C#N)c2)c2c1[C@H](O)[C@@H](F)C2 [Compound 271, 3-fluoro-5-(((1S,2S)-2-fluoro-1-hydroxy-7-(methylsulfonyl)-2,3-dihydro-1H-inden-4-yl)oxy)benzonitrile]
- EC50: 470 nM

SMILES: N#Cc1cc(F)cc(Oc2ccc(S(=O)(=O)C(F)F)c3c2CC[C@H]3O)c1 [Compound 155, 3-[(1R)-7-(difluoromethylsulfonyl)-1-hydroxy-indan-4-yl]oxy-5-fluoro-benzonitrile]
- EC50: 130 nM

SMILES: O=S(=O)(c1ccc(Oc2c(F)ccc3[nH]ncc23)c2c1[C@H](O)C(F)(F)C2)C(F)(F)F [Compound 264, (S)-2,2-Difluoro-4-((5-fluoro-1H-indazol-4-yl)oxy)-7-((trifluoromethyl)sulfonyl)-2,3-dihydro-1H-inden-1-ol]
- EC50 [1]: 2730 nM

SMILES: Cc1c(Oc2cc(F)cc(C#N)c2)ccc(S(=O)(=O)C(F)(F)F)c1Cl [Compound 144, 3-Fluoro-5-[3-chloro-2-methyl-4-(trifluoromethylsulfonyl)phenoxy]benzonitrile]
- EC50 [1]: 390 nM

SMILES: CS(=N)(=O)c1ccc(Oc2cc(F)cc(F)c2)c2c1[C@H](O)C(F)(F)C2 (stereo partly drawn) [Compound 192, ((S)-7-(3,5-Difluorophenoxy)-2,2-difluoro-3-hydroxy-2,3-dihydro-1H-inden-4-yl)(imino)(methyl)-λ^6-sulfanone]
- EC50 [1]: 280 nM

SMILES: N#Cc1cc(F)cc(Oc2ccc(S(=O)(=O)C(F)F)c3c2CC(F)(F)[C@H]3N)c1 [Compound 207, (S)-3-((1-Amino-7-((difluoromethyl)sulfonyl)-2,2-difluoro-2,3-dihydro-1H-inden-4-yl)oxy)-5-fluorobenzonitrile]
- EC50 [1]: 830 nM

SMILES: N#Cc1cc(F)cc(Oc2ccc(S(=O)(=O)C(F)F)cc2C#N)c1 [Compound 134, 2-(3-Cyano-5-fluorophenoxy)-5-((difluoromethyl)sulfonyl)benzonitrile]
- EC50 [1]: 2300 nM

SMILES: COc1cc(F)cc(Oc2ccc(S(=O)(=O)C(F)F)c3c2CC[C@H]3O)c1 [Compound 6, (R)-7-((difluoromethyl)sulfonyl)-4-(3-fluoro-5-methoxyphenoxy)-2,3-dihydro-1H-inden-1-ol]
- EC50 [1]: 75 nM

SMILES: O=Cc1c(S(=O)(=O)C(F)(F)F)ccc(Oc2cc(F)cc(Cl)c2)c1Cl [Compound 112, 2-Chloro-3-(3-chloro-5-fluorophenoxy)-6-((trifluoromethyl)sulfonyl)benzaldehyde]
- EC50 [1]: 340 nM

SMILES: CS(=O)(=O)c1ccc(Oc2cc(F)cc(C#N)c2)c2c1C(O)C(F)(F)C2 (stereo not shown) [Compound 223, 3-((2,2-Difluoro-1-hydroxy-7-(methylsulfonyl)-2,3-dihydro-1H-inden-4-yl)oxy)-5-fluorobenzonitrile]
- EC50: 63 nM

SMILES: CS(=O)(=O)c1ccc(Oc2cc(F)cc(C#N)c2)c(C(F)F)c1C#N [Compound 94, 3-(3-Cyano-5-fluorophenoxy)-2-(difluoromethyl)-6-(methylsulfonyl)benzonitrile]
- EC50 [1]: 760 nM

SMILES: O=S(=O)(c1ccc(Oc2cccc3[nH]ncc23)c2c1[C@H](O)C(F)(F)C2)C(F)(F)F [Compound 263, (S)-4-((1H-Indazol-4-yl)oxy)-2,2-difluoro-7-((trifluoromethyl)sulfonyl)-2,3-dihydro-1H-inden-1-ol]
- EC50 [1]: 780 nM

SMILES: O=C1c2c(S(=O)(=O)C(F)F)ccc(Oc3cncc(Cl)c3)c2CC1(F)F [Compound 182, 4-((5-Chloropyridin-3-yl)oxy)-7-((difluoromethyl)sulfonyl)-2,2-difluoro-2,3-dihydro-1H-inden-1-one]
- EC50 [1]: 4000 nM

SMILES: N#Cc1cc(F)cc(Oc2ccc(S(N)(=O)=O)c3c2[C@@H](F)[C@@H](F)[C@H]3O)c1 [Compound 336, (1R,2S,3S)-7-(3-cyano-5-fluoro-phenoxy)-1,2-difluoro-3-hydroxy-indane-4-sulfonamide]
- EC50 [1]: 67 nM

SMILES: N#Cc1cc(F)cc(Oc2ccc(S(=O)(=O)C(F)(F)F)c3c2CC[C@H]3O)c1 [Compound 57, (R)-3-Fluoro-5-((1-hydroxy-7-((trifluoromethyl)sulfonyl)-2,3-dihydro-1H-inden-4-yl)oxy)benzonitrile]
- EC50: 110 nM

SMILES: N#Cc1cc(F)cc(Oc2ccc(S(=O)(=O)CCl)c3c2CC(F)(F)[C@H]3O)c1 [Compound 215, (S)-3-((7-((Chloromethyl)sulfonyl)-2,2-difluoro-1-hydroxy-2,3-dihydro-1H-inden-4-yl)oxy)-5-fluorobenzonitrile]
- EC50 [1]: 22 nM

SMILES: O=S(=O)(c1ccc(Oc2cncc(Cl)c2)c2c1[C@H](O)C(F)(F)C2)C(F)F [Compound 25, (S)-4-((5-chloropyridin-3-yl)oxy)-7-((difluoromethyl)sulfonyl)-2,2-difluoro-2,3-dihydro-1H-inden-1-ol]
- EC50 [1]: 18 nM

SMILES: CS(=O)(=O)c1ccc(Oc2cc(F)cc(C#N)c2)c2c1[C@H](O)C(F)(Cl)C2 (stereo partly drawn) [Compound 270, 3-(((1S)-2-chloro-2-fluoro-1-hydroxy-7-(methylsulfonyl)-2,3-dihydro-1H-inden-4-yl)oxy)-5-fluorobenzonitrile]
- EC50 [1]: 100 nM

SMILES: NCc1c(S(=O)(=O)C(F)F)ccc(Oc2cc(F)cc(Cl)c2)c1Br [Compound 85, (2-Bromo-3-(3-chloro-5-fluorophenoxy)-6-((difluoromethyl)sulfonyl)phenyl)methanamine]
- EC50 [1]: 11800 nM

SMILES: N#Cc1cccc(Oc2ccc(S(=O)(=O)C(F)F)c3c2CC[C@H]3O)c1 [Compound 156, 3-[(1R)-7-(Difluoromethylsulfonyl)-1-hydroxy-indan-4-yl]oxybenzonitrile]
- EC50: 350 nM

SMILES: N#Cc1cc(F)cc(Oc2ccc(S(=O)(=O)C(F)(F)F)c(C#N)c2Br)c1 [Compound 100, 2-Bromo-3-(3-cyano-5-fluorophenoxy)-6-((trifluoromethyl)sulfonyl)benzonitrile]
- EC50 [1]: 7600 nM

SMILES: Cc1c(Oc2cc(F)cc(Cl)c2)ccc(S(=O)(=O)C(F)(F)F)c1Cl [Compound 143, 3-Chloro-1-(3-chloro-5-fluoro-phenoxy)-2-methyl-4-(trifluoromethylsulfonyl)benzene]
- EC50 [1]: 1200 nM

SMILES: N#Cc1c(S(=O)(=O)C(F)F)ccc(Oc2cc(F)cc(Cl)c2)c1Cl [Compound 38, 2-Chloro-3-(3-chloro-5-fluorophenoxy)-6-((difluoromethyl)sulfonyl)benzonitrile]
- EC50 [1]: 390 nM

SMILES: Cc1c(Oc2cc(F)cc(Cl)c2)ccc(S(=O)(=O)C(F)(F)F)c1Br [Compound 140, 3-Bromo-1-(3-chloro-5-fluoro-phenoxy)-2-methyl-4-(trifluoromethylsulfonyl)benzene]
- EC50 [1]: 2400 nM

SMILES: O=S(=O)(c1ccc(Oc2cncc(Cl)c2)c2c1[C@H](O)CC2)C(F)F [Compound 3, (R)-4-((5-chloropyridin-3-yl)oxy)-7-((difluoromethyl)sulfonyl)-2,3-dihydro-1H-inden-1-ol]
- EC50 [1]: 960 nM

SMILES: N#Cc1c(S(=O)(=O)C(F)(F)F)ccc(Oc2cc(F)cc(Cl)c2)c1Cl [Compound 111, 2-Chloro-3-(3-chloro-5-fluorophenoxy)-6-((trifluoromethyl)sulfonyl)benzonitrile]
- EC50 [1]: 1380 nM

SMILES: Cc1cc(Oc2ccc(S(=O)(=O)C(F)F)c3c2CC(F)(F)[C@H]3O)ccc1F [Compound 198, (S)-7-((Difluoromethyl)sulfonyl)-2,2-difluoro-4-(4-fluoro-3-methylphenoxy)-2,3-dihydro-1H-inden-1-ol]
- EC50 [1]: 290 nM

SMILES: Cc1c(S(C)(=O)=O)ccc(Oc2cc(F)cc(Cl)c2)c1C(F)F [Compound 53, 1-(3-Chloro-5-fluorophenoxy)-2-(difluoromethyl)-3-methyl-4-(methylsulfonyl)benzene]
- EC50 [1]: 3300 nM

SMILES: N#Cc1cc(F)cc(Oc2ccc(S(=O)(=O)C(F)(F)F)c3c2CC(F)(F)[C@H]3N)c1 [Compound 290, 3-[(1S)-1-amino-2,2-difluoro-7-(trifluoromethylsulfonyl)indan-4-yl]oxy-5-fluoro-benzonitrile]
- EC50: 170 nM

SMILES: C[C@@]1(F)Cc2c(Oc3cc(F)cc(C#N)c3)ccc(S(C)(=O)=O)c2[C@@H]1O [Compound 300, 3-fluoro-5-(((1S,2R)-2-fluoro-1-hydroxy-2-methyl-7-(methylsulfonyl)-2,3-dihydro-1H-inden-4-yl)oxy)benzonitrile]
- EC50 [1]: 2800 nM

SMILES: O=S(=O)(c1ccc(Oc2ccc(F)c(Cl)c2)c2c1C(O)CC2)C(F)(F)F (stereo not shown) [Compound 218, 4-(3-Chloro-4-fluorophenoxy)-7-((trifluoromethyl)sulfonyl)-2,3-dihydro-1H-inden-1-ol]
- EC50 [1]: 3500 nM

SMILES: O=S(=O)(c1ccc(Oc2ccc(F)c3[nH]ncc23)c2c1C(O)C(F)(F)C2)C(F)(F)F (stereo not shown) [Compound 241, 2,2-Difluoro-4-((7-fluoro-1H-indazol-4-yl)oxy)-7-((trifluoromethyl)sulfonyl)-2,3-dihydro-1H-inden-1-ol]
- EC50 [1]: 140 nM
